The record followed here is patent publication US11541057B2, “Thienopyrimidinone NMDA receptor modulators and uses thereof” (Cadent Therapeutics, Inc., priority 2015, dated 2023).

In the experiment the target is T1, NMDA receptor GRIN1/GRIN2B (NR2B) expressed in HEK293 cells (Homo sapiens, UniProt Q13224).
T1 construct: host or cells: HEK293
Put plainly: Reversal of Ro 25-6981-mediated suppression of the Ca2+ response (fluo-8 fluorescence, FDSS) in HEK293 cells expressing GRIN1 and GRIN2B. The experiment is classed as cell-based. Conditions: % reversal=100*(R−Rneg)/(Rpos−Rneg) of Ro 25-6981 suppression of co-agonist (glutamate/glycine) Ca2+ response, 10 min pre-incubation, compound concentration not given. On the procedure: HEK293 cells with constructs conferring stable expression of the GRIN1 gene and tetracycline-inducible expression of the GRIN2B gene (Chantest, Cleveland, Ohio) are grown to ˜75% confluence in tissue culture flasks at 37° C., 5% CO2. NR2B expression is induced by overnight incubation with 0.3-0.4 μg/ml tetracycline in the presence of 2.5 mM ARL-15896 at 37° C., followed by moving to 30° C. for 3-5 hours. Cells are next harvested using TripleExpress™ (Life Technologies, Carlsbad, Calif.) according to the manufacturer's instructions, first removing culture medium, rinsing with Dulbecco's phosphate buffered saline (Ca^2+ and Mg^2+-free), and then adding the TripleExpress™ reagent. Harvested cells are spun down, washed twice in Ca^2+- and Mg^2+-free Hank's Balanced Salt Solution with 20 mM HEPES and 10 mM glucose, pH 7.4 (HHnoCa solution), and counted with viability assessed using Trypan Blue. Cells are loaded with fluo-8 Ca^2+-sensitive dye in HHnoCa solution according to the manufacturer's directions (AAT Bioquest, Sunnyvale, Calif.), incubating at 37° C. for 20 minutes followed by 25 minutes at 22-25° C. After a wash in HHnoCa to remove extracellular dye, cells are resuspended in HHnoCa and plated at […] cells per well in a volume of 25 μl/well in 384 well black-wall, clear bottom plates (Hamamatsu, Middlesex, N.J.). Plates are then centrifuged to create a monolayer in the wells and stored in the dark until used.
Prior to analysis, compound plates are prepared with each compound at 6× the final desired concentration. From stock solutions at 10 mM in 100% DMSO, compounds are spotted in the desired amounts using an ECHO liquid handler (Labcyte, Sunnyvale, Calif.) into wells of a 384-well plate and then diluted with 50 μl of HHnoCa containing 750 nM Ro 25-6981 and 120 μM 5,7-dichlorokynurenic acid (both purchased from Tocris Bioscience (Bristol, England) and maintained as 10 mM stock solutions in 100% DMSO). To insure complete compound dissolution, these plates are then placed in an orbital shaker for at least one hour. Also prepared prior to the assay is a co-agonist plate containing HHnoCa with 240 μM glutamate, 2.4 mM glycine, and 7.2 mM CaCl2, which is 2.4× the desired final concentration of each reagent. Both the compound plate and co-agonist plate are 384-well polypropylene plates from Thermo Fisher Scientific, Waltham, Mass.
The assay is performed by first adding 10 μl solution from each well of the compound plate described above to the cell plate using a CyBiWell liquid handler (Analytik Jena AG, Jena, Germany), followed by 10 minutes pre-incubation in the dark. Cell plates are then loaded onto a Hamamatsu FDSS 6000 plate reader. After a 30-second baseline, 25 μl is added to each well from the co-agonist plate, and the fluorescence signal is recorded for another 2 minutes. FDSS software applies shading and autofluorescence correction, and resultant raw fluorescence measurements are exported in the form of a fluorescence ratio for each well to its own reading at time zero in the experiment. In each plate, negative control wells consist of wells where Ro 25-6981 and 5,7 dichlorokynurenic acid are present and co-agonist is applied in the absence of any added assay compound. Under these conditions, the Ca^2+ response to co-agonist is suppressed. Positive control wells also present in each plate contain 5,7 dichlorokynurenic acid but no Ro 25-6981, so that co-agonist addition results in a large Ca^2+ response. Compounds tested are evaluated on the basis of their ability to reverse the suppression of the Ca^2+ response mediated by Ro 25-6981, which is quantified as % reversal=100*(R−Rneg)/(Rpos−Rneg) where R is the fluorescence ratio for the test compound at the end of the experiment and Rneg and Rpos are the end ratios for the negative and positive controls, respectively. […]

T1 sequence (Q13224 27-1484, other chains not shown): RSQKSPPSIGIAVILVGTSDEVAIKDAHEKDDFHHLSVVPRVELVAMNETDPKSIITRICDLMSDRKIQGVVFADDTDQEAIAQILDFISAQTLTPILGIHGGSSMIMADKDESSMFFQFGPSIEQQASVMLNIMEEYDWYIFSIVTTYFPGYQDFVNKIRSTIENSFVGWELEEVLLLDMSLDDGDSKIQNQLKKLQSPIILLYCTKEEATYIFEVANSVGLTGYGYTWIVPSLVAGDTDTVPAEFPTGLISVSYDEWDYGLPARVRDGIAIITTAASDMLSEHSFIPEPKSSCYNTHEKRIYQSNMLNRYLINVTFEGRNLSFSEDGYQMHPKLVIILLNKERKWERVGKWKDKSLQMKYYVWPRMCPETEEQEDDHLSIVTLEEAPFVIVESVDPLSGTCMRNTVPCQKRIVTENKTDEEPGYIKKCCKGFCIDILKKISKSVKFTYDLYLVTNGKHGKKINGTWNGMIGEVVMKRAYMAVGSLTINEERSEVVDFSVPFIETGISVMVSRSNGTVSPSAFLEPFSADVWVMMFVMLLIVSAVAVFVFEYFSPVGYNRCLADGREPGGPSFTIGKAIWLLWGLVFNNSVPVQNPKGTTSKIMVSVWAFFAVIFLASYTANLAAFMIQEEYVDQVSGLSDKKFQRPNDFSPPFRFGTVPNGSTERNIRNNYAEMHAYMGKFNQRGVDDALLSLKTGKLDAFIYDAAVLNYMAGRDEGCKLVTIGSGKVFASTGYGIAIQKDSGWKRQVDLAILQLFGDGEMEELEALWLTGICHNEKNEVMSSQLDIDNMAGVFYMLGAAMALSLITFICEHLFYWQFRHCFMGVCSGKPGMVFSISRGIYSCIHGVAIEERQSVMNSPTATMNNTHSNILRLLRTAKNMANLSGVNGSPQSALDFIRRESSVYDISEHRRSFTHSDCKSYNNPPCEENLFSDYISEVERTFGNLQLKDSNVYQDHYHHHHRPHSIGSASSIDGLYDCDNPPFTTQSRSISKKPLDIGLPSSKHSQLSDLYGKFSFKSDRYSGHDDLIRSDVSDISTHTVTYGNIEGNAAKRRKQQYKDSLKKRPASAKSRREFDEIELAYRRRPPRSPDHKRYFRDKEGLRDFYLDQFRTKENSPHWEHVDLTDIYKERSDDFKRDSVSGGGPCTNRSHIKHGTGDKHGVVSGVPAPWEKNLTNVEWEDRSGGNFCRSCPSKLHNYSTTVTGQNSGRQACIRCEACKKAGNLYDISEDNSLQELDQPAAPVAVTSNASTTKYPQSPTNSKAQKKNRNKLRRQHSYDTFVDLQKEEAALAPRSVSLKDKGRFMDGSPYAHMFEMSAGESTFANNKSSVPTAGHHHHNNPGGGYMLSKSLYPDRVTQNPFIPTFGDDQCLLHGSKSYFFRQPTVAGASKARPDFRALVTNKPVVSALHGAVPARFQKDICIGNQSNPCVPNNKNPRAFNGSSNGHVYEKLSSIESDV

In the case of `CC(C(=O)N1CCCC1)n1cnc2scc(-c3ccc(F)c(Cl)c3)c2c1=O` (stereo not shown) [Example 57, 5-(3-chloro-4-fluorophenyl)-3-[1-oxo-1-(pyrrolidin-1-yl)propan-2-yl]-3H,4H-thieno[2,3-d]pyrimidin-4-one], the “Response Recovered (%)” value came out at 3%.

With `O=C(Cn1cnc2scc(-c3ccc(Cl)c(C(F)(F)F)c3)c2c1=O)N1C[C@@H](F)[C@@H](F)C1` [Example 66, 5-[4-chloro-3-(trifluoromethyl)phenyl]-3-{2-[(3R,4S)-3,4-difluoropyrrolidin-1-yl]-2-oxoethyl}-3H,4H-thieno[2,3-d]pyrimidin-4-one], the “Response Recovered (%)” value was 103%.

For the molecule `O=C(Cn1cnc2scc(-c3ccc(Cl)cc3)c2c1=O)N1CCC(O)(c2ccccc2)CC1` [Example 15, 5-(4-chlorophenyl)-3-[2-(4-hydroxy-4-phenylpiperidin-1-yl)-2-oxoethyl]-3H,4H-thieno[2,3-d]pyrimidin-4-one], the “Response Recovered (%)” value was −1%.

For `O=C(Cn1cnc2scc(-c3ccc(Cl)c(F)c3)c2c1=O)N1CCCC1` [Example 21, 5-(4-chloro-3-fluorophenyl)-3-(2-oxo-2-(pyrrolidin-1-yl)ethyl)thieno[2,3-d]pyrimidin-4(3H)-one], the “Response Recovered (%)” value was 19%.

Take `O=C(Cn1cnc2sc(-c3ccc(Cl)cc3)cc2c1=O)N1CCCCC1` [Example 75, 6-(4-chlorophenyl)-3-[2-oxo-2-(piperidin-1-yl)ethyl]-3H,4H-thieno[2,3-d]pyrimidin-4-one]: the “Response Recovered (%)” value was 0%.

In the case of `O=C(Cn1cnc2scc(-c3cnc(Cl)c(C(F)(F)F)c3)c2c1=O)N1CC(F)C(F)C1` (stereo not shown) [Example 71, 5-[6-chloro-5-(trifluoromethyl)pyridin-3-yl]-3-[2-(3,4-difluoropyrrolidin-1-yl)-2-oxoethyl]-3H,4H-thieno[2,3-d]pyrimidin-4-one], the “Response Recovered (%)” value was 25%.

Regarding `O=C(Cn1cnc2scc(-c3cnc(Cl)c(Cl)c3)c2c1=O)N1CC(F)C(F)C1` (stereo not shown) [Example 72, 5-(5,6-dichloropyridin-3-yl)-3-[2-(3,4-difluoropyrrolidin-1-yl)-2-oxoethyl]-3H,4H-thieno[2,3-d]pyrimidin-4-one], the “Response Recovered (%)” value was 15%.

Turning to `C[C@H]1CCCN1C(=O)Cn1cnc2scc(-c3ccc(Cl)cc3)c2c1=O` [Example 10, 5-(4-chlorophenyl)-3-{2-[(2S)-2-methylpyrrolidin-1-yl]-2-oxoethyl}-3H,4H-thieno[2,3-d]pyrimidin-4-one], the “Response Recovered (%)” value is reported as 2%.

Turning to `O=C(Cn1cnc2scc(-c3cncc(F)c3)c2c1=O)N1CCCC1` [Example 39, 5-(5-fluoropyridin-3-yl)-3-[2-oxo-2-(pyrrolidin-1-yl)ethyl]-3H,4H-thieno└2,3-d┘pyrimidin-4-one], the “Response Recovered (%)” value is on record as 3%.

For the molecule `O=C(Cn1cnc2scc(-c3ccc(F)cc3)c2c1=O)N1CCCCC1` [Example 24, 5-(4-fluorophenyl)-3-[2-oxo-2-(piperidin-1-yl)ethyl]-3H,4H-thieno[2,3-d]pyrimidin-4-one], the “Response Recovered (%)” value was determined as 4%.

For `O=C(CCn1cnc2scc(-c3ccc(Cl)c(C(F)(F)F)c3)c2c1=O)N1CCCC1C(F)(F)F` (stereo not shown) [Example 103, 5-[4-chloro-3-(trifluoromethyl)phenyl]-3-{3-oxo-3-[2-(trifluoromethyl)pyrrolidin-1-yl]propyl}-3H,4H-thieno[2,3-d]pyrimidin-4-one], the “Response Recovered (%)” value is −2%.

Take `Cc1nc2scc(-c3ccc(Cl)cc3)c2c(=O)n1CC(=O)N1CCCC1` [Example 98, 5-(4-chlorophenyl)-2-methyl-3-(2-oxo-2-(pyrrolidin-1-yl)ethyl)thieno[2,3-d]pyrimidin-4(3H)-one]: the “Response Recovered (%)” value is 6%.

Turning to `O=C(Cn1cnc2scc(-c3ccc(F)cc3Cl)c2c1=O)N1CCCC1` [Example 53, 5-(2-chloro-4-fluorophenyl)-3-[2-oxo-2-(pyrrolidin-1-yl)ethyl]-3H,4H-thieno└2,3-d┘pyrimidin-4-one], the “Response Recovered (%)” value turned out to be 5%.

As to `O=C(Cn1cnc2scc(-c3ccc(F)cc3)c2c1=O)N1CCCC1C(F)(F)F` (stereo not shown) [Example 27], the “Response Recovered (%)” value is 7%.

Take `O=C(On1cnc2scc(-c3ccc(Cl)c(C(F)(F)F)c3)c2c1=O)N1CCCC1` [Example 85, 5-(4-chloro-3-(trifluoromethyl)phenyl)-4-oxothieno[2,3-d]pyrimidin-3(4H)-yl pyrrolidine-1-carboxylate]: the “Response Recovered (%)” value was found to be 51%.

Consider `O=C(Cn1cnc2scc(-c3ccc(C(F)(F)F)cc3Cl)c2c1=O)N1CCCC1` [Example 43, 5-[2-chloro-4-(trifluoromethyl)phenyl]-3-[2-oxo-2-(pyrrolidin-1-yl)ethyl]-3H,4H-thieno[2,3-d]pyrimidin-4-one], for which the “Response Recovered (%)” value turned out to be 8%.

As for `O=C(CCn1cnc2scc(-c3ccc(Cl)c(C(F)(F)F)c3)c2c1=O)N1CCCC1` [Example 101, 5-(4-chloro-3-(trifluoromethyl)phenyl)-3-(3-oxo-3-(pyrrolidin-1-yl)propyl)thieno[2,3-d]pyrimidin-4(3H)-one], the “Response Recovered (%)” value is recorded as 6%.

Regarding `O=C(Cn1cnc2scc(-c3ccc(Cl)cc3)c2c1=O)N1CCC(F)CC1` [Example 2, 5-(4-chlorophenyl)-3-[2-(4-fluoropiperidin-1-yl)-2-oxoethyl]-3H,4H-thieno[2,3-d]pyrimidin-4-one], the “Response Recovered (%)” value was determined as 25%.

On to `O=C(Nn1cnc2scc(-c3ccc(Cl)c(C(F)(F)F)c3)c2c1=O)C1CCCC1` [Example 95, N-(5-(4-chloro-3-(trifluoromethyl)phenyl)-4-oxothieno[2,3-d]pyrimidin-3(4H)-yl)cyclopentanecarboxamide], for which the “Response Recovered (%)” value is given as 21%.

Turning to `O=C(Cn1cnc2scc(-c3ccc(C(F)(F)F)cc3)c2c1=O)N1CCCC1` [Example 17, 3-[2-oxo-2-(pyrrolidin-1-yl)ethyl]-5-[4-(trifluoromethyl)phenyl]-3H,4H-thieno[2,3-d]pyrimidin-4-one], the “Response Recovered (%)” value was 11%.

For `O=C(On1cnc2scc(-c3ccc(F)c(Cl)c3)c2c1=O)N1CCC(F)C1` (stereo not shown) [Example 88, 5-(3-chloro-4-fluorophenyl)-4-oxo-3H,4H-thieno[2,3-d]pyrimidin-3-yl 3-fluoropyrrolidine-1-carboxylate], the “Response Recovered (%)” value came out at 83%.

For `O=C(CNn1cnc2scc(-c3ccc(Cl)c(C(F)(F)F)c3)c2c1=O)N1CCCC1` [Example 91, 5-(4-chloro-3-(trifluoromethyl)phenyl)-3-((2-oxo-2-(pyrrolidin-1-yl)ethyl)amino)thieno[2,3-d]pyrimidin-4(3H)-one], the “Response Recovered (%)” value was found to be 2%.

Take `O=C(Cn1cnc2scc(-c3cnc(Cl)c(Cl)c3)c2c1=O)N1CCC(F)C1` (stereo not shown) [Example 63, 5-(5,6-dichloropyridin-3-yl)-3-[2-(3-fluoropyrrolidin-1-yl)-2-oxoethyl]-3H,4H-thieno[2,3-d]pyrimidin-4-one]: the “Response Recovered (%)” value came to 10%.

As to `O=C(Nn1cnc2scc(-c3ccc(F)c(Cl)c3)c2c1=O)C1CCCC1` [Example 96, N-[5-(3-chloro-4-fluorophenyl)-4-oxo-3H,4H-thieno[2,3-d]pyrimidin-3-yl]cyclopentanecarboxamide], the “Response Recovered (%)” value stood at 27%.

Turning to `O=C(On1cnc2scc(-c3ccc(F)c(Cl)c3)c2c1=O)N1CCCC1` [Example 86, 5-(3-chloro-4-fluorophenyl)-4-oxo-3H,4H-thieno[2,3-d]pyrimidin-3-yl pyrrolidine-1-carboxylate], the “Response Recovered (%)” value was 48%.
